Results: ChEMBL document CHEMBL1157646, “Melanogenesis inhibitors from the desert plant Anastatica hierochuntica in B16 melanoma cells” (Bioorg Med Chem, 2010)
The source made the active and inactive calls. The rule behind the calls is not given here.

Experiments:
[1] = Toxicity in mouse B16-4A5 cells assessed as inhibition of cell proliferation at 1 uM in presence of 1 mM theophylline after 72 hrs by WST8 dye reduction assay; format: cell-based
[2] = Toxicity in mouse B16-4A5 cells assessed as inhibition of cell proliferation at 3 uM in presence of 1 mM theophylline after 72 hrs by WST8 dye reduction assay; format: cell-based
[3] = Toxicity in mouse B16-4A5 cells assessed as inhibition of cell proliferation at 10 uM in presence of 1 mM theophylline after 72 hrs by WST8 dye reduction assay; format: cell-based
[4] = Toxicity in mouse B16-4A5 cells assessed as inhibition of cell proliferation at 30 uM in presence of 1 mM theophylline after 72 hrs by WST8 dye reduction assay; format: cell-based
[5] = target: T1, Tyrosinase (Agaricus bisporus) (UniProt O42713); test: Inhibition of mushroom tyrosinase at 1 uM
T1 sequence (whole entry): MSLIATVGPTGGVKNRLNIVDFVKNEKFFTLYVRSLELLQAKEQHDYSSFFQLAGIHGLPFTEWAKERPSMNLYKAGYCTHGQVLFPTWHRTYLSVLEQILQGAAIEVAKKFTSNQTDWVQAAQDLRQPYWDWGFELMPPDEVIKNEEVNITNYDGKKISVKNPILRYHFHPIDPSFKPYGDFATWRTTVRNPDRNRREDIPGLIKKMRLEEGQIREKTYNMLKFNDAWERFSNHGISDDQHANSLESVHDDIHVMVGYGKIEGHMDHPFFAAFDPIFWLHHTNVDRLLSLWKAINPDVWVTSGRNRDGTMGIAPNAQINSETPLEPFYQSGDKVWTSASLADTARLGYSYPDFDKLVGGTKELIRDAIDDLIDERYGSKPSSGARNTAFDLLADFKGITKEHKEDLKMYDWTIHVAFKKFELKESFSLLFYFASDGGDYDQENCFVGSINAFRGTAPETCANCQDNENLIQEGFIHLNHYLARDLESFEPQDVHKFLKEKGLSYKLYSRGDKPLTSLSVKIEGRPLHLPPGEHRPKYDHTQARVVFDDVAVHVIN

[6] = target: T1, Tyrosinase (Agaricus bisporus); test: Inhibition of mushroom tyrosinase at 3 uM
[7] = Effect on tyrosinase mRNA expression in mouse B16-4A5 cells assessed as tyrosinase mRNA/beta-actin mRNA expression ratio at 3 uM in presence of 1 mM theophylline after 72 hrs by RT-PCR; format: functional
[8] = Effect on tyrosinase mRNA expression in mouse B16-4A5 cells assessed as tyrosinase mRNA/beta-actin mRNA expression ratio at 1 uM in presence of 1 mM theophylline after 72 hrs by RT-PCR; format: functional
[9] = Effect on tyrosinase mRNA expression in mouse B16-4A5 cells assessed as tyrosinase mRNA/beta-actin mRNA expression ratio at 10 uM in presence of 1 mM theophylline after 72 hrs by RT-PCR; format: functional
[10] = Effect on tyrosinase mRNA expression in mouse B16-4A5 cells assessed as tyrosinase mRNA/beta-actin mRNA expression ratio at 30 uM in presence of 1 mM theophylline after 72 hrs by RT-PCR; format: functional
[11] = Effect on TRP1 mRNA expression in mouse B16-4A5 cells assessed as TRP1 mRNA/beta-actin mRNA expression ratio at 1 uM in presence of 1 mM theophylline after 72 hrs by RT-PCR; format: functional
[12] = Effect on TRP1 mRNA expression in mouse B16-4A5 cells assessed as TRP1 mRNA/beta-actin mRNA expression ratio at 3 uM in presence of 1 mM theophylline after 72 hrs by RT-PCR; format: functional
[13] = Effect on TRP1 mRNA expression in mouse B16-4A5 cells assessed as TRP1 mRNA/beta-actin mRNA expression ratio at 10 uM in presence of 1 mM theophylline after 72 hrs by RT-PCR; format: functional
[14] = Effect on TRP1 mRNA expression in mouse B16-4A5 cells assessed as TRP1 mRNA/beta-actin mRNA expression ratio at 30 uM in presence of 1 mM theophylline after 72 hrs by RT-PCR; format: functional
[15] = Effect on TRP2 mRNA expression in mouse B16-4A5 cells assessed as TRP2 mRNA/beta-actin mRNA expression ratio at 1 uM in presence of 1 mM theophylline after 72 hrs by RT-PCR; format: functional
[16] = Effect on TRP2 mRNA expression in mouse B16-4A5 cells assessed as TRP2 mRNA/beta-actin mRNA expression ratio at 3 uM in presence of 1 mM theophylline after 72 hrs by RT-PCR; format: functional
[17] = Effect on TRP2 mRNA expression in mouse B16-4A5 cells assessed as TRP2 mRNA/beta-actin mRNA expression ratio at 10 uM in presence of 1 mM theophylline after 72 hrs by RT-PCR; format: functional
[18] = Effect on TRP2 mRNA expression in mouse B16-4A5 cells assessed as TRP2 mRNA/beta-actin mRNA expression ratio at 30 uM in presence of 1 mM theophylline after 72 hrs by RT-PCR; format: functional
[19] = target: T1, Tyrosinase (Agaricus bisporus); test: Inhibition of mushroom tyrosinase assessed as inhibition of melanin production from dopachrome by autoxidation at 100 uM
[20] = cells; settings: Mus musculus, B16-4A5, 72 h, read-out: INH
Description: Inhibition of theophylline-stimulated melanogenesis in mouse B16-4A5 cells at 30 uM after 72 hrs

[21] = cells; settings: Mus musculus, B16-4A5, 72 h, read-out: INH; remark: listed apart in the source
Description: Inhibition of theophylline-stimulated melanogenesis in mouse B16-4A5 cells at 10 uM after 72 hrs

[22] = cells; settings: Mus musculus, B16-4A5, 72 h, read-out: INH; remark: listed apart in the source
Description: Inhibition of theophylline-stimulated melanogenesis in mouse B16-4A5 cells at 3 uM after 72 hrs

[23] = cells; settings: Mus musculus, B16-4A5, 72 h, read-out: INH; remark: listed apart in the source
Description: Inhibition of theophylline-stimulated melanogenesis in mouse B16-4A5 cells at 1 uM after 72 hrs

[24] = Toxicity in mouse B16-4A5 cells assessed as inhibition of cell proliferation in presence of 1 mM theophylline after 72 hrs by WST8 dye reduction assay; format: cell-based
[25] = target: T2, Mitogen-activated protein kinase 1 and 3 (ERK2 and ERK1) (Mus musculus) (UniProt P63085+Q63844); test: Inhibition of ERK1/2 phosphorylation in mouse B16-4A5 cells at 100 uM in presence of 1 mM theophylline after 72 hrs by immunoblot; format: cell-based
[26] = Inhibition of theophylline-stimulated melanogenesis in mouse B16-4A5 cells at 100 uM after 72 hrs; format: functional; settings: B16-4A5, 72 h
[27] = target: T2, Mitogen-activated protein kinase 1 and 3 (ERK2 and ERK1) (Mus musculus); test: Inhibition of ERK1/2 phosphorylation in mouse B16-4A5 cells at 10 to 30 uM in presence of 1 mM theophylline after 72 hrs by immunoblot; format: cell-based
[28] = target: T3, Tyrosinase (Agaricus bisporus, UniProt O42713); test: Inhibition of mushroom tyrosinase
T3 sequence (O42713 whole entry): T1 sequence (whole entry)

[29] = Inhibition of theophylline-stimulated melanogenesis in mouse B16-4A5 cells at 300 uM after 72 hrs; format: functional; settings: B16-4A5, 72 h
[30] = Inhibition of theophylline-stimulated melanogenesis in mouse B16-4A5 cells at 1000 uM after 72 hrs; format: functional; settings: B16-4A5, 72 h

T2 sequence (P63085 whole entry, looked up): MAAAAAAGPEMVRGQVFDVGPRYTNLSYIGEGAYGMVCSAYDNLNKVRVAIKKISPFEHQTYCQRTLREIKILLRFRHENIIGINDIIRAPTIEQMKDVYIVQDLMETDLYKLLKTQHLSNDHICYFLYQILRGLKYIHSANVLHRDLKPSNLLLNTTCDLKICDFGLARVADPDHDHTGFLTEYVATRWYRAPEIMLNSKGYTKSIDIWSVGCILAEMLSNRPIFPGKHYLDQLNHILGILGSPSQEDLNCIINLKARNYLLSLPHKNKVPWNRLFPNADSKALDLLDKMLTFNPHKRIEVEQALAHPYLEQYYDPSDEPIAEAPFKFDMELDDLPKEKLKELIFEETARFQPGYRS
T2 sequence (Q63844 whole entry, looked up): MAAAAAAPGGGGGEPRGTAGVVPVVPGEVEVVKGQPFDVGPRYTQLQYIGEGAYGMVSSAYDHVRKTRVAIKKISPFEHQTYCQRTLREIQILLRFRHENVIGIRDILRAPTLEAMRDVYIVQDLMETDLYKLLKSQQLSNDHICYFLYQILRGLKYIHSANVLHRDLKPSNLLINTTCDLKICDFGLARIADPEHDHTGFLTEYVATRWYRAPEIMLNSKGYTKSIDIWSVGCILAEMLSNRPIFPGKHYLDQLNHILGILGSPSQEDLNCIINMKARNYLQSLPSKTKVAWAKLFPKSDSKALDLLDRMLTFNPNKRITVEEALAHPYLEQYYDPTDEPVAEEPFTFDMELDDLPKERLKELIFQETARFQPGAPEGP

SMILES | inhibition at 72 h, 1 µM [1] | inhibition at 72 h, 3 µM [2] | inhibition at 72 h, 10 µM [3] | inhibition at 72 h, 30 µM [4] | inhibition [5] | inhibition [6] | Ratio [7] | Ratio [8] | Ratio [9] | Ratio [10] | Ratio [11] | Ratio [12] | Ratio [13] | Ratio [14] | Ratio [15] | inhibition [19] | inhibition at 30 µM [20] | inhibition at 10 µM [21] | inhibition at 3 µM [22] | inhibition at 1 µM [23] | other results
COc1cc([C@H]2Oc3ccc([C@H]4Oc5cc(O)cc(O)c5C(=O)[C@@H]4O)cc3O[C@@H]2CO)ccc1O [ISOSILYBIN A] | -2.2% | -1.5% | -2.5% | 16% | 5.1% | 7% | 0.97 | 0.73 | 0.85 | 0.56 | 1.11 | 1.26 | 1.12 | 0.6 | 0.68 | inactive | 72.1% | 50.2% | 19.8% | 11.7% | Ratio [16]: 0.63; Ratio [17]: 0.63; Ratio [18]: 0.36
O=c1cc(-c2ccc(O)c(O)c2)oc2cc(O)cc(O)c12 [LUTEOLIN] | -4.8% | -4.9% | 4% | 23.4% | 6.4% | 7.1% |  |  |  |  |  |  |  |  |  | inactive | 76.7% | 38.1% | 13.5% | 6.2% | IC50 at 72 h [24]: > 100 µM
COc1cccc(-c2cc(=O)c3ccccc3o2)c1N |  |  |  |  |  |  | 1.23 | 1.01 | 1.61 | 1.79 | 0.92 | 1.18 | 1.32 | 1.53 | 1.12 |  |  |  |  |  | Ratio [16]: 1.2; Ratio [17]: 1.3; Ratio [18]: 1.69
COc1cc([C@H]2Oc3cc([C@H]4Oc5cc(O)cc(O)c5C(=O)[C@@H]4O)ccc3O[C@@H]2CO)ccc1O [SILYBIN A] | -5.7% | -10.7% | 7.5% | 33.8% | 8.4% | 10.3% | 1.12 | 0.92 | 1.93 | 2.11 | 0.79 | 0.89 | 1.6 | 1.07 | 0.95 | inactive | 64.7% | 24.4% | 18.8% | 9.2% | IC50 at 72 h [24]: > 100 µM; Ratio [16]: 1; Ratio [17]: 2; Ratio [18]: 1.6; inhibition [25]: Active
O=C1C[C@@H](c2ccc(O)c(O)c2)Oc2cc(O)cc(O)c21 [ERIODICTYOL] |  |  |  | < 8.8% |  |  |  |  |  |  |  |  |  |  |  | inactive | 46.3% | 32.3% | 10.5% | 6.5% | inhibition at 100 µM [26]: 70.5%
COc1cc([C@@H]2Oc3ccc([C@H]4Oc5cc(O)cc(O)c5C(=O)[C@@H]4O)cc3O[C@H]2CO)ccc1O [ISOSILYBIN B] |  |  |  | < 8.8% | 4.2% | 4.8% | 1.15 | 0.79 | 1.33 | 0.87 | 1.22 | 1.02 | 1.14 | 1.14 | 0.97 | inactive | 73.4% | 58% | 37.5% | 18.7% | Ratio [16]: 0.7; Ratio [17]: 0.74; Ratio [18]: 0.64
COc1cc([C@@H]2Oc3cc([C@H]4Oc5cc(O)cc(O)c5C(=O)[C@@H]4O)ccc3O[C@H]2CO)ccc1O [SILYBIN B] | -2% | -1.4% | 11.8% | 44.4% | 5.7% | 8.4% | 0.95 | 0.89 | 1.27 | 0.59 | 0.88 | 1.12 | 1.35 | 0.73 | 0.78 |  | 33% | 10.2% | 3% | -0.2% | IC50 at 72 h [24]: > 100 µM; Ratio [16]: 1.31; Ratio [17]: 1.69; Ratio [18]: 1.03; inhibition [27]: Active
O=c1c(O)c(-c2ccc(O)c(O)c2)oc2cc(O)cc(O)c12 [QUERCETIN] | -8.8% | -7.7% | -8.6% | 11.9% | 3.5% | 4.8% |  |  |  |  |  |  |  |  |  | inactive | 72.5% | 34.3% | 17.1% | 13.9% | IC50 [28]: 31 µM
OC[C@H]1O[C@@H](Oc2ccc(O)cc2)[C@H](O)[C@@H](O)[C@@H]1O [ARBUTIN] |  |  |  |  |  |  |  |  |  |  |  |  |  |  |  |  | 20.4% | 10.6% |  |  | inhibition at 300 µM [29]: 61.5%; inhibition at 100 µM [26]: 38.1%; inhibition at 1000 µM [30]: 83.7%
